Test results from ChEMBL document CHEMBL1155665, “Euplectin and coneuplectin, new naphthopyrones from the lichen Flavoparmelia euplecta” (J Nat Prod, 2000).
In brackets after ≈: the same amount, converted by molar mass.

System: P815
Experiment: Antiproliferative activity against mouse P815 cells assessed as incorporation of [3H]thymidine after 18 hrs by liquid scintillation counting
Format: functional, cell-based

Q: With Cc1cc(=O)c2c(O)cc3cc4c(c(O)c3c2o1)C(=O)C=C4 [EUPLECTIN] as the compound, how does the IC50 read?
A: 1.67 µg/mL (≈ 5.68 µM)
